Test results from patent EP0423133B1, “ENZYMATIC RESOLUTION SYSTEMS AND COMPOUNDS USEFUL IN THE SYSTEMS AND THEIR REPARATIONS” (priority 1988, dated 1989).
Counter-ions that a name gives are not always drawn.

Key:
[1] = biological target: T1, Protease VIII: "Subtilopeptidase A" (Bacillus licheniformis, UniProt P00780); assay: Homogeneous aqueous enzymatic resolution (ester hydrolysis) with enzyme B; type: biochemical; conditions: 10.0 mmol ester in 100 ml 0.2 M phosphate buffer pH 7.0, 100 mg enzyme B, 20-22 °C, 20 hours
T1 sequence (P00780 106-379): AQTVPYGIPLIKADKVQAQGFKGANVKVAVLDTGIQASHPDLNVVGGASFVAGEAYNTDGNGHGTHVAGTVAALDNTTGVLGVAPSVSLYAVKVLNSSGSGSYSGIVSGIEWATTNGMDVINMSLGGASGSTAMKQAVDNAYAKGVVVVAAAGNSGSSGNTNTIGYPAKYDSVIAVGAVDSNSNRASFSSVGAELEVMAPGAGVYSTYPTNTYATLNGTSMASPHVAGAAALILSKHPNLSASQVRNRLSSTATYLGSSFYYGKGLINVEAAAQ

Prozyme 6 [2] = assay: Asymmetric hydrolysis in an extractive membrane reactor with enzyme F; type: biochemical, Aspergillus oryzae; conditions: for enantiomeric excess: chiral HPLC, enzyme in aqueous phase only, 6.3 hours
[3] = biological target: T2, Protease XXVII: "Nagarse" (Bacillus amyloliquefaciens, UniProt P00782); assay: Homogeneous aqueous enzymatic resolution (ester hydrolysis) with enzyme D; type: biochemical; conditions: 10.0 mmol ester in 100 ml 0.2 M phosphate buffer pH 7.0, 100 mg enzyme D, 20-22 °C, 20 hours
T2 sequence (P00782 108-382): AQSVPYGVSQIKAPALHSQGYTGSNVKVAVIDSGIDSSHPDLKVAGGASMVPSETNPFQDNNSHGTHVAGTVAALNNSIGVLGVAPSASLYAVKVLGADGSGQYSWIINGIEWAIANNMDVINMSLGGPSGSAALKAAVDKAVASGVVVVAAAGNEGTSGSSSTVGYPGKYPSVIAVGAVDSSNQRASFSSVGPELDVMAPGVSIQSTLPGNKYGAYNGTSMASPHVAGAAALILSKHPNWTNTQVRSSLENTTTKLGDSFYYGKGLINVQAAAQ
Source text: (§1) The enzymes used in Examples 6.2.1.1-6.2.1.17, 6.2.1.20-6.2.1.21, 6.2.1.23-6.2.1.28, 6.2.2.7, and 6.2.3.1-6.2.3.5 that follow were all proteases commercially available from Sigma Chemical Co., St. Louis, MO. These proteases are listed in each example using the Sigma numbering system, which is summarized below: • Protease VIII: "Subtilopeptidase A", product P-5380 (also known as subtilisin Carlsberg) • Protease XIV: from Streptomyces griseus, product P-5147 • Protease XVI: from Bacillus subtilis, product P-8775 • Protease XXIII: from Aspergillus oryzae, product P-4032 • Protease XXVII: "Nagarse", product P-4789 • Protease XXIV: bacterial protease, product P-8038 An additional protease enzyme, which was designated Prozyme 6, was obtained from the Amano Enzyme Corporation and used in Examples 6.2.1.18-6.2.19, 6.2.1.22, 6.2.1.29-6.2.1.30 and 6.2.2.1-6.2.2.4 described below. A pig liver esterase was used in Example 6.21.11; this enzyme, obtained from Sigma Chemical Company, was designated as their product E-3128. For examples 6.2.2.5-6.2.2.6, Candida lipase obtained from Genzyme Corporation was used. Finally, Candida lipase, product L-1754, obtained from Sigma Chemical Co. was used in Example 6.2.2.7.

Protease XVI = assay: Homogeneous aqueous enzymatic resolution (ester hydrolysis) with enzyme C; type: biochemical, Bacillus subtilis; conditions: 10.0 mmol ester in 100 ml 0.2 M phosphate buffer pH 7.0, 100 mg enzyme C, 20-22 °C, 20 hours
Source text: as §1

Prozyme 6 [4] = assay: Asymmetric hydrolysis in an extractive dispersion reactor with enzyme F; type: biochemical, Aspergillus oryzae; conditions: 3.38 gm ester in 100 ml 0.2 M sodium phosphate buffer pH 7.0 and 100 ml hexane, 100 mg Prozyme 6, 3.5 hours at room temperature, vigorous stirring
Protocol: In this Example, the hexane was dispersed in the reaction vessel to extract the inhibitory ibuprofen acid as it is formed. The
reaction was started by adding 100 mg of the protease from the fungus Aspergillus oryzae (from Amano Enzyme Corporation, Prozyme 6, 60,000 units per mg of solid).
After 3.5 hours at room temperature with vigorous stirring, the solution was acidified to pH 2 and extracted with 2 volumes of hexane. The aqueous phase was saved for subsequent workup. The hexane phase was dried over MgS04 and evaporated to dryness. The resolved ibuprofen product so recovered consisted of 490 mg of white powder, indicating 24% conversion. The optical rotation was -0.568 (c = 1.015 in ethanol), indicating the R isomer of ibuprofen.

Prozyme 6 [5] = assay: Homogeneous aqueous enzymatic resolution (ester hydrolysis) with enzyme F; type: biochemical, Aspergillus oryzae; conditions: for Conversion in Homogeneous Aqueous Reaction System: 30 °C
[6] = tested on: lipase from Candida cylindracea (Lipase OF); assay: Activity of the carrier lipase against the ester; type: biochemical; conditions: Meito Sangyo Company
Protease XXIII [7] = assay: Homogeneous aqueous enzymatic resolution (ester hydrolysis) with enzyme A; type: biochemical, Aspergillus oryzae; conditions: 10.0 mmol ester in 100 ml 0.2 M phosphate buffer pH 7.0, 100 mg enzyme A, 20-22 °C, 20 hours
Protocol: The enzymes used in Examples 6.2.1.1-6.2.1.17, 6.2.1.20-6.2.1.21, 6.2.1.23-6.2.1.28, 6.2.2.7, and 6.2.3.1-6.2.3.5 that follow were all proteases commercially available from Sigma Chemical Co., St. Louis, MO. […] For examples 6.2.2.5-6.2.2.6, Candida lipase obtained from Genzyme Corporation was used.
No further purification was performed.
The aqueous layer was retained.

[8] = biological target: T1, Protease VIII: "Subtilopeptidase A"; assay: Rate of hydrolysis of single enantiomers by pH stat, enzyme B; type: biochemical; conditions: for Rate: 50 mM single enantiomer, 50 mM buffer pH 7.6, enzyme B
Protocol: (§2) 15 ml of a solution containing one enantiomer of the ester at a concentration of 50 mM, and Na3PO4 buffer at 50 mM and pH 7.6 was observed using a pH stat device. 0.1 ml of a 50 mg/ml solution of enzyme B, made up from the commercially available preparation in 50 mM Na3 P04 buffer at pH 7.6, were added. Rates of hydrolysis of both enantiomers of the ester compound were determined for the enzyme. The ratio of the rates of hydrolysis for the two enantiomers for the two enantiomers with respect to the enzyme indicate the stereospecificity of that enzyme's hydrolytic action on the racemic mixture of the ester. No evidence for the hydrolysis of the acetylthio ester portion of the substrate molecule was found.

[9] = biological target: T2, Protease XXVII: "Nagarse"; assay: Rate of hydrolysis of single enantiomers by pH stat, enzyme D; type: biochemical; conditions: for Rate: 50 mM single enantiomer, 50 mM buffer pH 7.6, enzyme D
Protocol: as §2, with “D,” for “B,”, “thioacetyl” for “acetylthio”

Protease XXIII [10] = assay: Rate of hydrolysis of single enantiomers by pH stat, enzyme A; type: biochemical, Aspergillus oryzae; conditions: for Rate: 50 mM single enantiomer, 50 mM buffer pH 7.6, enzyme A
Protocol: as §2, with “A,” for “B,”

Protease XIV = assay: Rate of hydrolysis of single enantiomers by pH stat, enzyme I; type: biochemical, Streptomyces griseus; conditions: for Rate: 50 mM single enantiomer, 50 mM buffer pH 7.6, Example 6.2.3.2 (enzyme I in text, (G) in table)
Protocol: as §2, with “solution of protease enzyme I,” for “solution of enzyme B,”, “protease enzyme I, made up” for “of enzyme B, made up”, “50 mM Na3PO4 buffer at” for “50 mM Na3 P04 buffer at”, “for the protease enzyme. The” for “for the enzyme. The”, “ester. No” for “ester. No evidence for the hydrolysis of the acetylthio ester portion of the substrate molecule was found.”
evidence for the hydrolysis of the acetylthio ester portion of the substrate molecule was found.

[11] = tested on: Protease XXIV: bacterial protease; assay: Rate of hydrolysis of single enantiomers by pH stat, enzyme J; type: biochemical; conditions: for Rate: 50 mM single enantiomer, 50 mM buffer pH 7.6, Example 6.2.3.4 (Enzyme J in text, (H) in table)
Protocol: as §2, with “Enzyme J,” for “enzyme B,”, “Na3PO4” for “Na3 P04”

intact microorganism = conditions: 400 mg dried cells, 160 mg (±)-substrate; Iriuchijima and Keiyu 1981; cited from earlier work
[12] = tested on: Candida lipase (Genzyme Corporation); assay: Asymmetric hydrolysis in a multiphase membrane bioreactor with enzyme G; type: biochemical, Candida cylindracea; conditions: first 45 minutes; 0.75M ester in MIBK, 3.0 grams lipase in membrane, pH 8.50
Source text: The module was then drained.
This material was recrystallized from hexane.

With `CC(C)Cc1ccc(C(C)C(=O)OCS(=O)(=O)O)cc1` (racemic) [Compound 1, Sodium Salt of 4-Sulfomethyl Ester of 2-(4-Isobutylphenyl) propanoic Acid] as the compound, how does the “% CONVERSION” value [1] read?
Its value is 29.1%.

And the “% e.e.” value ([1]; acid product, R)?
The value was 44.6%.

And the enantiomeric excess (Prozyme 6 [2]; R ibuprofen acid product)?
Its enantiomeric excess is 99.3%.

What about the enantiomeric excess (Prozyme 6 [2]; S ibuprofen from hydrolysis (pH 12) of the unconverted ester) of the same compound?
Its enantiomeric excess is 98.9%.

What about the “conversion of the racemic ester to the acid” value (Prozyme 6 [2]; enzyme in aqueous phase and in membrane pores (polyacrylonitrile fibers, 80% cyclohexane:20% toluene), 0.5 M ester, 3 gm protease (F), 6.75 hours at 30 °C) of the same compound?
Its value is 48.3%.

And the “conversion of the racemic ester to ibuprofen acid” value (Prozyme 6 [2]; enzyme in aqueous phase only (cellulose dialysis fibers, hexane), 32.51 gm ester in 1000 ml 0.1 M sodium phosphate buffer pH 7.0, 2 gm protease (F), 6.3 hours at room temperature)?
The value was 50%.

And the “% CONVERSION” value [3]?
Its value is 34.0%.

What about the “% e.e.” value ([3]; acid product, R) of the same compound?
The value was 37.7%.

What about the “% CONVERSION” value (Protease XVI) of the same compound?
The value was 27.2%.

And the “% e.e.” value (Protease XVI; acid product, R)?
Its value is 70.7%.

And the conversion (Prozyme 6 [4])?
Its conversion is 24%.

And the “conversion of racemic ester to acid” value (Prozyme 6 [5]; 3.22 gm ester in 100 ml 0.2 M sodium phosphate buffer pH 7.0, 100 mg protease (F), 20 hours at room temperature)?
The value was 45%.

What about the conversion (Prozyme 6 [5]; After 6.49 hours at 30 °C, 0.5 M ester in 325 ml 0.1 M sodium phosphate buffer pH 7.0, 3 gm enzyme (F)) of the same compound?
The conversion was 37.7%.

And the “Conversion in Homogeneous Aqueous Reaction System” value (Prozyme 6 [5]; Time 6.75 hrs, 0.5 M ester in 325 ml 0.1 M sodium phosphate buffer pH 7.0, 3 gm enzyme (F))?
Its value is 37.7%.

And the “Conversion in Homogeneous Aqueous Reaction System” value (Prozyme 6 [5]; Time 23.1 hrs, 0.5 M ester in 325 ml 0.1 M sodium phosphate buffer pH 7.0, 3 gm enzyme (F))?
Its value is 40.9%.

What about the “activity of the enzyme against the ester” value [6] of the same compound?
Its value is “inactive”.

And the “% CONVERSION” value (Protease XXIII [7])?
Its value is 37.9%.

What about the “% e.e.” value (Protease XXIII [7]; acid product, R) of the same compound?
The value was greater than 99%.

For `CC(=O)SC[C@@H](C)C(=O)OCS(=O)(=O)O` [Compound 14, Potassium Salt of the Sulfomethyl Ester of D-(-)-S-3-Acetylthio-2-methylpropanoic Acid], which Rate [8] is on record?
The Rate was 65 umols/hr/mg.

And the Rate [9]?
The Rate was 27 umols/hr/mg.

And the Rate (Protease XXIII [10])?
Its Rate is 5.3 umols/hr/mg.

And the Rate (Protease XIV)?
Its Rate is 63 umols/hr/mg.

What about the Rate [11] of the same compound?
The Rate was 61 umols/hr/mg.

For `CC(=O)SC[C@H](C)C(=O)OCS(=O)(=O)O` [Compound 15, Potassium Salt of the Sulfomethyl Ester of L-(+)-S-3-Acetylthio-2-methylpropanoic Acid], which Rate [8] is on record?
The Rate was 135 umols/hr/mg.

And the “Rate Ratio L/D” value ([8]; enzyme B, pH 7.6)?
The value was 2.1.

What about the Rate [9] of the same compound?
The Rate was 29 umols/hr/mg.

And the “Rate Ratio L/D” value ([9]; enzyme D, pH 7.6)?
The value was 1.1.

And the Rate (Protease XXIII [10])?
Its Rate is 12 umols/hr/mg.

And the “Rate Ratio L/D” value (Protease XXIII [10]; enzyme A, pH 7.6)?
The value was 2.3.

And the Rate (Protease XIV)?
The Rate was 105 umols/hr/mg.

What about the “Rate Ratio L/D” value (Protease XIV; Example 6.2.3.2, pH 7.6) of the same compound?
Its value is 1.7.

What about the Rate [11] of the same compound?
Its Rate is 65 umols/hr/mg.

And the “Rate Ratio L/D” value ([11]; Example 6.2.3.4, pH 7.6)?
The value was 1.1.

For `COC(=O)C(C)c1ccc2cc(OC)ccc2c1` (racemic) [Compound 18, Methyl Ester of 2-(6-Methoxy-2-naphthyl)propanoic Acid], which substrate converted (intact microorganism) is on record?
Its substrate converted is 16.3%.

And the average rate [12]?
The average rate was 35 amol/hr.
